Experimental findings from patent publication US9150665B2, “Cellulose interpolymers and method of oxidation” (Eastman Chemical Company, priority 2003, dated 2015) are described below.

The series can be described thus: physchem. To be noted: for % Drug Solubilized: pH 3.9; for Sw/So: pH 4; for solubility: water. On the procedure:
The heterogeneous mixture was mixed well before carefully adjusting the pH with 0.1 N NaOH until the CA dissolved giving a clear solution. […] Four independent aqueous CA solutions were prepared by this process. […] The ethanol solution of each drug was then added slowly to the aqueous CA solutions previously prepared.
All of the samples were filtered thru 0.45 micron syringe filters before measurement. […] Solutions of each of the oxidized CA:drug mixtures were also prepared in 50/50 ethanol/Millipore water. […] All samples were immediately analyzed for the amount of drug in the solution using an UV-Vis Spectrophotometer.

In brackets after ≈: the same amount, converted by molar mass.

In general, solubility refers to the dissolved amount per volume that the medium holds. Consider `N#Cc1ccc(C(c2ccc(C#N)cc2)n2cncn2)cc1` [letrozole], for which the “Sw (amount of drug solubilized)” value is listed as 0.1461 g/L/25 g of drug:CAOX, the “% Drug Solubilized” value stood at 7%, the Sw/So was determined as 1.2 and the solubility is 120 µg/mL (≈ 421 µM).

As to `CC(C)(C#N)c1cc(Cn2cncn2)cc(C(C)(C)C#N)c1` [anastrozole], the “Sw (amount of drug solubilized)” value was 1.2481 g/L/25 g of drug:CAOX, the “% Drug Solubilized” value turned out to be 90%, the Sw/So came to 1.9 and the solubility worked out at 650 µg/mL (≈ 2220 µM).
